# pIC50: −log10 of the molar value. Structures can show the parent of a compound that is named as a salt.
# Target: T1, human TRPC6 (Homo sapiens, UniProt Q9Y210)
# T1 construct: expressed in transfected cells
# T1 sequence (Q9Y210 1-931): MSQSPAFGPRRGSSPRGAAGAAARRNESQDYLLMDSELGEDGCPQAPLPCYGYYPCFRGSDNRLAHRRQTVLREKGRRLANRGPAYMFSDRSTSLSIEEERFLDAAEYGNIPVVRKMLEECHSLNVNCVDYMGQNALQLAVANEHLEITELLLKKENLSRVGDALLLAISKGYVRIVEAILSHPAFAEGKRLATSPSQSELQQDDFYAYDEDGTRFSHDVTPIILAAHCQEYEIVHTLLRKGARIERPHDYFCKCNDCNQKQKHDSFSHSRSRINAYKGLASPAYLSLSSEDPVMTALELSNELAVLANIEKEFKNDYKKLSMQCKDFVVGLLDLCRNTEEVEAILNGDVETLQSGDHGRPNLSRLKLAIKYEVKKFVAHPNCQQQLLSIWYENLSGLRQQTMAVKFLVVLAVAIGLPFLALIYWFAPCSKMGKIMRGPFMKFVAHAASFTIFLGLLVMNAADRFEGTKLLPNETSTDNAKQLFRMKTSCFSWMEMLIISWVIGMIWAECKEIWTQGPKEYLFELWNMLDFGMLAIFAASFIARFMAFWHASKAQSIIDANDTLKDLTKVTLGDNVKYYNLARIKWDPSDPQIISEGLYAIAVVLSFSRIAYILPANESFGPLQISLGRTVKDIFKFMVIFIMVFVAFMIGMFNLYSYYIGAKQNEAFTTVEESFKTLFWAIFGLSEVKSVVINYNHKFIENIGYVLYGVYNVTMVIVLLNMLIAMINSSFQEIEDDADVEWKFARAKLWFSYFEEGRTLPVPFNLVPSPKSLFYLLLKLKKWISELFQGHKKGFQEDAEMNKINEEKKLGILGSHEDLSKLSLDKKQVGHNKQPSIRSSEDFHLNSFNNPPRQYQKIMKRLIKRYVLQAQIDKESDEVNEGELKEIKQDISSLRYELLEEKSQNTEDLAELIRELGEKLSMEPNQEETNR
# Assay: TRPC6 calcium flux assay (FLIPR, OAG-stimulated calcium influx)
# Type: cell-based
# Settings: HEK293 cells stably transfected with human TRPC6, read-out: hTRPC6 Potency
# Description: Biological Example 1 TRPC6 Calcium Flux Assay
# Potency of TRPC6 (Transient receptor potential channel family C6) inhibitors were measured by their inhibition of Calcium influx trigged by […] (1-Oleoyl-2-acetyl-sn-glycerol, Millipore Sigma, O6754) stimulation on HEK293 cells stablely transfected with human TRPC6 using a FLIPR tetra system. Cells were grown in a humidified environment at 37° C. under 5% CO2 using the growth medium with the following selective reagents (Dulbecco's Modified Eagle's Medium (DMEM) high glucose, 10% Fetal Bovine Serum, 1×PSGlu (penicillin-streptomycin glutamine), 1×NEAA (Non-essential amino acid), 1× Na Pyruvate and 200 ug/ml Hygromycin). For general passage, cells were grown to 70-90% confluency; the media was removed, and the cells were gently washed 2 times with calcium and magnesium free PBS (phosphate-buffered saline). Trypsin (3 mL) was applied for 5 minutes at 37° C. The cells were dislodged by rapping flask against base of a hand and 7 mL of growth medium was added to deactivate trypsin and re-suspend cells. The usual splitting schedule was 1:5 every 2-3 days.
# Cells were plated the day before the assay, plating cell density is 1.0-1.5×10^4/25 μl/well in poly-D-lysine (PDL) coated 384-well plates using either multichannel pipettes or multidrop. These cells were first incubated with fluorescence dye at room temperature for 90-120 minutes after they were grown on PDL-coated 384-well black plates overnight (Dye loading buffer 10 ml example: 9 mL assay buffer, 1 mL, 10×PBX signal enhancer, 10 μL Calcium indicator). The cells were incubated with a dose of compounds for 25 minutes before being stimulated with TRPC6 agonist OAG. The OAG solution was prepared by adding OAG into assay buffer (Ca ringer solution base: 10 mM HEPES (4-(2-hydroxyethyl)-1-piperazine-ethanesulfonic acid), 4 mM MgCl2, 120 mM NaCl, 5 mM KCl, pH=7.2 @25° C.)+0.1% BSA+2 mM CaCl2) to the concentration of 0.2 mM/2% DMSO, which achieves a final on cell concentration of 50 uM/0.5% DMSO. 12.5 uL OAG mixture was added and the activation of the TRPC6 channel was measured by the change of intracellular Calcium levels on FLIPR terra system.
# Data was acquired by measuring the fluorescent peak signal subtracted from the background during the 180 second imaging frame. Each data point is further normalized to 100% of OAG triggered signal vs. buffer. Table 16 provides the IC50 for each compound, which data is obtained by plotting peak signal over the compound dose.
row,Structure (SMILES),pIC50
1,"Cc1ccc2c(c1)nc(N1CC[C@@H](F)[C@H](N)C1)n2Cc1ccc(C#N)cn1 [Example 110, 6-((2-((3R,4R)-3-amino-4-fluoro-1-piperidinyl)-5-methyl-1H-benzimidazol-1-yl)methyl)-3-pyridinecarbonitrile]",8.91
2,N#Cc1ccc2c(c1)nc(N1CC[C@@H](F)[C@H](N)C1)n2Cc1ncc(Cl)cn1 [Example 198],7.15
3,"CN(C)C(=O)Cn1c(N2CC[C@@H](F)[C@H](N)C2)nc2ccc(F)cc21 [Example 566, 2-(2-((3R,4R)-3-amino-4-fluoropiperidin-1-yl)-6-fluoro-1H-benzo[d]imidazol-1-yl)-N,N-dimethylacetamide]",7.45
4,"COc1ccc2c(c1)nc(N1CCC[C@H](N)C1)n2Cc1ccc(C#N)cn1 [Example 143, (S)-6-((2-(3-aminopiperidin-1-yl)-5-methoxy-1H-benzo[d]imidazol-1-yl)methyl)nicotinonitrile 2,2,2-trifluoroacetate]",8.16
5,"N#C[C@H]1CCCN1C(=O)Cn1c(N2CC[C@@H](F)[C@H](N)C2)nc2cc(F)c(F)cc21 [Example 636, (R)-1-(2-(2-((3R,4R)-3-amino-4-fluoropiperidin-1-yl)-5,6-difluoro-1H-benzo[d]imidazol-1-yl)acetyl)pyrrolidine-2-carbonitrile]",6.49
6,"CC(C)C1CN(C(=O)Cn2c(N3CC[C@@H](F)[C@H](N)C3)nc3cc(F)c(F)cc32)C1 [Example 429, 2-(2-((3R,4R)-3-amino-4-fluoropiperidin-1-yl)-5,6-difluoro-1H-benzo[d]imidazol-1-yl)-1-(3-isopropylazetidin-1-yl)ethanone]",< 5.43
7,"N[C@@H]1CN(c2nc3cc(F)c(F)cc3n2Cc2ccc(F)cc2F)CC[C@H]1F [Example 351, (3R,4R)-1-(1-(2,4-difluorobenzyl)-5,6-difluoro-1H-benzimidazol-2-yl)-4-fluoro-3-piperidinamine]",7.99
8,"CC1(C#N)CCN(C(=O)Cn2c(N3CC[C@@H](F)[C@H](N)C3)nc3cc(F)c(F)cc32)CC1 [Example 629, 1-(2-(2-((3R,4R)-3-amino-4-fluoropiperidin-1-yl)-5,6-difluoro-1H-benzo[d]imidazol-1-yl)acetyl)-4-methylpiperidine-4-carbonitrile]",6.80
9,"N[C@@H]1CN(c2nc3cc(F)c(F)cc3n2CC(=O)N(CC(F)F)C2CC2)CC[C@H]1F [Example 631, 2-(2-((3R,4R)-3-amino-4-fluoropiperidin-1-yl)-5,6-difluoro-1H-benzo[d]imidazol-1-yl)-N-cyclopropyl-N-(2,2-difluoroethyl)acetamide]",6.65
10,N#Cc1ccc(Cn2c(N3CC[C@H](F)[C@H](N)C3)nc3c(Cl)cccc32)cc1 [Example 409],8.98
11,"N[C@@H]1CN(c2nc3ccc(F)cc3n2CC(=O)N[C@H]2CCOC2)CC[C@H]1F [Example 675, 2-(2-((3R,4R)-3-amino-4-fluoropiperidin-1-yl)-6-fluoro-1H-benzo[d]imidazol-1-yl)-N-((S)-tetrahydrofuran-3-yl)acetamide]",< 5.43
12,"N[C@@H]1CN(c2nc3cc(F)ccc3n2CC(=O)N2CCC2)CC[C@H]1F [Example 514, 2-(2-((3R,4R)-3-amino-4-fluoropiperidin-1-yl)-5-fluoro-1H-benzo[d]imidazol-1-yl)-1-(azetidin-1-yl)ethan-1-one]",6.73
13,"COc1cc(F)cc2c1nc(N1CC[C@@H](F)[C@H](N)C1)n2CC(=O)N1CCOCC1 [Example 545, 2-(2-((3R,4R)-3-amino-4-fluoropiperidin-1-yl)-6-fluoro-4-methoxy-1H-benzo[d]imidazol-1-yl)-1-morpholinoethan-1-one]",< 5.43
14,"N#Cc1ccc(Cn2c(N3CCC(F)(F)[C@H](N)C3)nc3cc(Cl)ccc32)nc1 [Example 13, (R)-6-((2-(3-amino-4,4-difluoropiperidin-1-yl)-5-chloro-1H-benzo[d]imidazol-1-yl)methyl)nicotinonitrile]",8.16
15,"N#Cc1ccc2nc(N3CC[C@@H](F)[C@H](N)C3)n(Cc3ccc(C(F)(F)F)nc3)c2c1 [Example 243, 2-((3R,4R)-3-amino-4-fluoropiperidin-1-yl)-1-((6-(trifluoromethyl)pyridin-3-yl)methyl)-1H-benzo[d]imidazole-6-carbonitrile hydrochloride]",5.71
16,"CS(=O)(=O)c1ccc2nc(N3CC[C@@H](F)[C@H](N)C3)n(Cc3ccc(Cl)cn3)c2c1 [Example 29, (3R,4R)-1-(1-((5-chloropyridin-2-yl)methyl)-6-(methylsulfonyl)-1H-benzo[d]imidazol-2-yl)-4-fluoropiperidin-3-amine]",7.35
17,"N#Cc1ccc(Cn2c(N3C[C@H]4C[C@@]4(CN)C3)nc3ccccc32)cc1 [Example 184, 4-((2-((1R,5S)-1-(aminomethyl)-3-azabicyclo[3.1.0]hexan-3-yl)-1H-benzo[d]imidazol-1-yl)methyl)benzonitrile]",6.84
18,"CCc1nc(Cn2c(N3CC[C@@H](F)[C@H](N)C3)nc3cc(F)c(F)cc32)no1 [Example 577, (3R,4R)-1-(1-((5-ethyl-1,2,4-oxadiazol-3-yl)methyl)-5,6-difluoro-1H-benzo[d]imidazol-2-yl)-4-fluoropiperidin-3-amine]",6.74
19,"N[C@@H]1CN(c2nc3cc(F)c(F)cc3n2Cc2cccc(Cl)c2)CC[C@H]1F [Example 367, (3R,4R)-1-(1-(3-chlorobenzyl)-5,6-difluoro-1H-benzimidazol-2-yl)-4-fluoro-3-piperidinamine]",6.45
20,"N[C@@H]1CN(c2nc3c(F)cc(F)cc3n2Cc2ccc(Cl)cn2)CCC1(F)F [Example 230, (R)-1-(1-((5-chloropyridin-2-yl)methyl)-4,6-difluoro-1H-benzo[d]imidazol-2-yl)-4,4-difluoropiperidin-3-amine hydrochloride]",9.31
21,"Cc1nnc(Cn2c(N3CC[C@@H](F)[C@H](N)C3)nc3c(F)cc(F)cc32)s1 [Example 552, (3R,4R)-1-(4,6-difluoro-1-((5-methyl-1,3,4-thiadiazol-2-yl)methyl)-1H-benzo[d]imidazol-2-yl)-4-fluoropiperidin-3-amine]",8.19
22,"N#Cc1ccc(Cn2c(N3CCC(F)(F)[C@H](N)C3)nc3ccccc32)cc1 [Example 154, (R)-4-((2-(3-amino-4,4-difluoropiperidin-1-yl)-1H-benzo[d]imidazol-1-yl)methyl)benzonitrile]",8.51
23,"CN[C@@H]1CN(c2nc3cc(F)cc(F)c3n2[C@H](C)c2ccc(C#N)cn2)CC[C@H]1F (single isomer, unassigned) [Example 440]",5.87
24,"C[C@H]1CCN(c2nc3ccccc3n2Cc2ccc(C#N)cc2)C[C@H]1N [Example 180, 4-((2-((3S,4S)-3-amino-4-methylpiperidin-1-yl)-1H-benzo[d]imidazol-1-yl)methyl)benzonitrile 2,2,2-trifluoroacetate]",7.83
25,"CN(CC(F)(F)F)C(=O)Cn1c(N2CC[C@@H](F)[C@H](N)C2)nc2cc(C(F)(F)F)ccc21 [Example 580, 2-(2-((3R,4R)-3-amino-4-fluoropiperidin-1-yl)-5-(trifluoromethyl)-1H-benzo[d]imidazol-1-yl)-N-methyl-N-(2,2,2-trifluoroethyl)acetamide]",6.44

# From US11332459B2 (TEIJIN PHARMA LIMITED, priority 2017, dated 2022)
